Measurements taken from publication PMC7693775, “AGTR1 Is Overexpressed in Neuroendocrine Neoplasms, Regulates Secretion and May Potentially Serve as a Target for Molecular Imaging and Therapy” (Cancers, 2020).
Read-outs that look alike come from different tables or passages of the source.

Assays:
BON cells [1] = assay type: cell-based, human; conditions: for effect on ATII-induced calcium signal: BON cells, preincubation 15-30 min before ATII (valsartan, PD123319: 1 µM)
AGTR1 [2] = target: T1, AGTR1 (Homo sapiens, UniProt P30556); test: competition binding with 125I-ATII, BON cells
T1 sequence (P30556 1-359): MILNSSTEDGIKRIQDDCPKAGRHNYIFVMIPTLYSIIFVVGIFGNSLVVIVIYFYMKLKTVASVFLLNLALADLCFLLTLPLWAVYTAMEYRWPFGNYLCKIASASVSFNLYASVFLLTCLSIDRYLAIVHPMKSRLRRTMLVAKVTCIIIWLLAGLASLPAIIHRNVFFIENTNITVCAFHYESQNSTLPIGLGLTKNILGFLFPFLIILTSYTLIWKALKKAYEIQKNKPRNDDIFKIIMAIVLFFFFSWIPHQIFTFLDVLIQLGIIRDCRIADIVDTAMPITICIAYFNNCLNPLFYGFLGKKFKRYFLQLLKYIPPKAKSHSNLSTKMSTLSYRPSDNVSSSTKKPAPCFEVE
Experimental: (§1) The Boc-protected ITCC dye (69 mg) was dissolved in DCM (3.0 mL) and subjected to deprotection by addition of TFA (300 µL). The reaction mixture was stirred for 2 h, the solvent removed under reduced pressure and the mixture codistilled with DCM several times to remove […]
(§2) TFA. […] MS (ESI): C39H51N4NaO7S2
(§3) 2.2 eq.) and DIPEA (7.2 µL, 42 µmol, 4.7 eq.) and the reaction mixture stirred for 1 h. The deprotected ITCC dye (8.0 mg, 9.0 µmol, 1.0 eq.) was dissolved in DMF (125 µL) with DIPEA (3.6 µL, 21 µmol, 2.3 eq.) and added to the reaction mixture which was stirred for additional 17 h. The mixture was precipitated from Et2O and the precipitate purified via flash chromatography (DCM/MeOH) to afford […]
(§4) Peptide iodination was performed as previously described [ 1 ].
(§5) (Sigma, Deisenhofen, Germany) were iodinated with 1 mCi carrier -free Na 125 I (NEZ033L010MC, Perkin Elmer, Waltham, MA, USA) and purified by HPLC (Analyt ic HPLC 1200 Series, Agilent, Santa Clara, CA, USA; see Figure S1 in supplementary material). The method for the competitive binding assay was described in detail before. For saturation experiments, binding buffer was prepared […]
(§6) of additional unlabeled peptide (total binding). Non -specific binding was subtracted from total binding to obtain spec ific binding. […]

AGTR1 [3] = target: T1, AGTR1; test: competition binding with 125I-ATII, H727 cells
Experimental: as §1, §2, §3, §4, §5, §6

H727 cells [4] = test: intracellular calcium mobilization assay; assay type: cell-based, human; conditions: preincubation 15-30 min before ATII (valsartan, PD123319: 1 µM)
Experimental: (§7) If not indicated otherwise, cell culture reagents were obtained from Biochrom AG (Berlin, Germany). The human NEN cell lines BON and QGP-1 (pancreatic), LCC-18 (colonic), H727 and UMC-11 (pulmonary) and all other cell lines were cultured in RPMI 1640 supplemented with 10 % fetal calf serum in a humidified atmosphere at 37 °C and 5% CO2. BON cells were a kind gift of Courtney Townsend (University of Texas, Galveston, TX, USA). LCC-18 were kindly donated by Kjell Ö berg (University of Uppsala, Uppsala, Sweden) and KRJ-1 by Dr. Irvin Modlin (Yale University, New Haven, CT, USA). QGP-1 were obtained from the Japanese Collection of Research Bioresources.
(§8) All other cell lines were obtained from Cell Line Services (Heidelberg, Germany), DSMZ (Braunschweig, Germany) or ATCC (Manassas, VA, USA). Cells were cultured for no more than 20 passages. Mycoplasma testing was done at least every six months. Cell lines were authenticated by STR analysis at DSMZ (Braunschweig, Germany). Due to the lack of reference profiles for BON and LCC-18, their respective STR profile was characterized as unique and not contamina ted with any […]
(§9) Table 1. STR profiling data for BON and LCC -18 cells.
(§10) Experiments in 96-well format were performed as previously described (18). […]

[5] = target: T2, ATII receptor (AGTR1, AGTR2) (Homo sapiens, UniProt P30556); test: in vitro receptor autoradiography of tissue cryosections; assay type: binding; conditions: 1 µM competitor
T2 construct: Consecutive cryosections of each tissue were incubated with the radioligand in the absence or presence of an excess of non-labeled ATII; from tissue; host or cells: flash-frozen cryosections of patient pancreatic and small-intestinal NEN and of control pancreas, small intestine and liver
T2 sequence (P30556 1-359): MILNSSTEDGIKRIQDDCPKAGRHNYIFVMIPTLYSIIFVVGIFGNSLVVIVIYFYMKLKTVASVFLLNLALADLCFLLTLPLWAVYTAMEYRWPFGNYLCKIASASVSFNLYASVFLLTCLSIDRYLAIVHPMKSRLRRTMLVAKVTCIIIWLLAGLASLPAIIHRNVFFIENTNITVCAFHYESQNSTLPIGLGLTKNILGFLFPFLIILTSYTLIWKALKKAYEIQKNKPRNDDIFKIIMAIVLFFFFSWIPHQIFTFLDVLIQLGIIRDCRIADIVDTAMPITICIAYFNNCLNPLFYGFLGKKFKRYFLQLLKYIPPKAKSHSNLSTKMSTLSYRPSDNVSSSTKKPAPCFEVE

[6] = target: T3, ATII receptor (AGTR1, AGTR2) (Homo sapiens, UniProt P50052); test: as above; assay type: binding; conditions: normal pancreas; 1 µM competitor
T3 construct: Consecutive cryosections of each tissue were incubated with the radioligand in the absence or presence of an excess of non-labeled ATII; from tissue; host or cells: flash-frozen cryosections of patient pancreatic and small-intestinal NEN and of control pancreas, small intestine and liver
T3 sequence (P50052 1-363): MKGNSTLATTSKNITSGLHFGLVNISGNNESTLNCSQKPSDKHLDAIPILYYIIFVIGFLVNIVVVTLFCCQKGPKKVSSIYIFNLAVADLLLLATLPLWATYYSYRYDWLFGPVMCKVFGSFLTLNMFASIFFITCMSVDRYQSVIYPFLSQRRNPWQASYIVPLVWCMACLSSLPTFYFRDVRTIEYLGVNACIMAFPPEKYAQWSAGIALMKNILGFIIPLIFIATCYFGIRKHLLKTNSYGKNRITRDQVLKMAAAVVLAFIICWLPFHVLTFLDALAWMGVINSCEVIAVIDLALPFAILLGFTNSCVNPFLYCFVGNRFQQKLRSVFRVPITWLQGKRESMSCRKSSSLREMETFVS

BON cells [7] = test: chromogranin A ELISA of cell supernatants; assay type: cell-based, human; conditions: 10 µM preincubation 15 min, 100 nM ATII
Experimental: as §7, §8, §9, §10

BON cells [8] = test: serotonin ELISA of cell supernatants; assay type: cell-based, human; conditions: 1 µM, 6 h
Experimental: as §7, §8, §9, §10

BON cells [9] = test: metabolic activity (AlamarBlue); assay type: cell-based, human; conditions: 96 h, different concentrations
Experimental: (§11) filter paper and measured in a gamma counter. Additional tissue sections were stained with hematoxylin and eosin for comparison with the corresponding autoradiograms.
as §7, with “Bioresources. […]” for “Bioresources.”
(§12) Cells were seeded in quadruplicates at a density of 5,000 cells in 50 µ L medium per well in 96 well plates, grown overnight and treated with the indicated ligand concentrations (on top of the well, final volume 100 µ L). After 96 h, metabolic activity was determined by addition of 100 µ L medium containing AlamarBlue™ redox indicator (Thermo Fisher, Waltham, MA, US) to each well. After 3 –4 h, the resulting fluorescence was measured with an EnVision Multilabel Plate Reader (Perkin Elmer, Waltham, USA). […]

H727 cells [10] = test: metabolic activity (AlamarBlue); assay type: cell-based, human; conditions: 96 h, different concentrations
Experimental: as §11
as §7, with “Bioresources. […]” for “Bioresources.”
as §12

AGTR1 [11] = target: AGTR1; parameters: method as in PMID 25313325; conditions: read-out: published Ki; cited from earlier work
[12] = system: AGTR1-positive BON tumors; test: in vivo near-infrared fluorescent imaging, xenograft; parameters: species or system mice
Experimental: seeded with 15,000/50,000 cells per well.
(§13) free medium for 10 min at room tem perature. A buffer baseline was obtained on the dynamic mass
(§14) used and plotted with GraphPad Prism 5.04.
(§15) For in vivo receptor targeting, the near -infrared fluorescent
(§16) in 100 µ L 0.9 % NaCl per animal).
(§17) fluorescence intensities.
(§18) animal research authorities.
First Linear Peptidic Urotensin -II Receptor Agonist. J. Med. Chem. 2016 , 59, 10100–10112,

[13] = system: receptor negative QGP-1 tumors; conditions: 1 nmol i.v., NIRF imaging
Experimental: as §13, §14, §15, §16, §17, §18
J. Med. Chem. 2016 , 59, 10100–10112,

[14] = target: angiotensin II (Homo sapiens), P01019; test: competition
Sequence of angiotensin II (Homo sapiens), P01019 (P01019 whole entry, looked up): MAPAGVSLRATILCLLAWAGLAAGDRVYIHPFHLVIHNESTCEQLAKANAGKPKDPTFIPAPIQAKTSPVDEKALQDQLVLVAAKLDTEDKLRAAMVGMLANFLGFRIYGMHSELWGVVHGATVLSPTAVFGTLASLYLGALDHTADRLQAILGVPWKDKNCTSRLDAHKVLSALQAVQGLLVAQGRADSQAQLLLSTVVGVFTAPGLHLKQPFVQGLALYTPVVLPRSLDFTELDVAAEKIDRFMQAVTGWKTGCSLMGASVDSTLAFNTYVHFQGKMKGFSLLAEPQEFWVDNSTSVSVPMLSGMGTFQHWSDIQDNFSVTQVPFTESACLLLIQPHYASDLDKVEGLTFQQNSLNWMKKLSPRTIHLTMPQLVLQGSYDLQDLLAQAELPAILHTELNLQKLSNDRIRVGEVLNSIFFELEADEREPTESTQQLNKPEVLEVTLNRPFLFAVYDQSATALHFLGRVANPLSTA

[15] = target: angiotensin II (Homo sapiens), P01019; test: competition; remark: listed apart in the source
[16] = target: 125I-angiotensin II (Homo sapiens), P01019; test: radioligand
Sequence of 125I-angiotensin II (Homo sapiens), P01019 (P01019 whole entry, looked up): as above

With `CC[C@H](C)[C@H](NC(=O)[C@H](Cc1ccc(O)cc1)NC(=O)[C@@H](NC(=O)[C@H](CCCNC(=N)N)NC(=O)[C@@H](N)CC(=O)O)C(C)C)C(=O)N[C@@H](Cc1c[nH]cn1)C(=O)N1CCC[C@H]1C(=O)N[C@@H](Cc1ccccc1)C(=O)O` [ATII, angiotensin II] the EC50 (BON cells [1]; 24 h) was 4.9 ± 5.2 nM.

With `Cc1cc(Cn2cnc3c2C[C@@H](C(=O)O)N(C(=O)C(c2ccccc2)c2ccccc2)C3)ccc1N(C)C` [PD123319] the “effect on ATII-induced calcium signal” value (BON cells [1]) was “did not influence”, the “displacement of 125I-ATII binding” value (AGTR1 [2]) was “not” and the “displacement of 125I-ATII binding” value (AGTR1 [3]) was “not”. The “effect on ATII-induced calcium signal” value (H727 cells [4]) was “did not influence”, the “displacement of 125I-ATII binding” value ([5]; pancreatic NEN tissues #1, #4, #6, #8) was “not” and the “displacement of 125I-ATII binding” value ([5]; small-intestinal NEN tissues) was “unable to compete”. For the same molecule, the “displacement of 125I-ATII binding” value [6] was “displaced”.

With `CCCCC(=O)N(Cc1ccc(-c2ccccc2-c2nnn[nH]2)cc1)[C@H](C(=O)O)C(C)C` [valsartan] the “effect on ATII-induced calcium signal” value (BON cells [1]) was “significantly diminish”, the “effect on ATII-induced calcium signal” value (H727 cells [4]) was “significantly diminish” and the “effect on ATII-stimulated CgA secretion” value (BON cells [7]) was “diminished”. For the same molecule, the “serotonin (5HT) secretion” value (BON cells [8]) was “did not modify”, the metabolic activity (BON cells [9]) was “no change” and the metabolic activity (H727 cells [10]) was “no change”.

For saralasin, the Ki (AGTR1 [11]) is given as 1 nM.

In the case of `CC(C)[C@H](NC(=O)[C@H](CCCNC(=N)N)NC(=O)CN(C)C(=O)CCC(=O)NCCCOCCOCCOCCCNC(=O)c1ccc2c(c1)C(C)(C)C(=CC=CC=CC=CC1=[N+](CCCCS(=O)(=O)[O-])c3ccccc3C1(C)C)N2CCCCS(=O)(=O)O)C(=O)N[C@@H](Cc1ccc(O)cc1)C(=O)N[C@H](C(=O)N[C@@H](Cc1c[nH]cn1)C(=O)N1CCC[C@H]1C(=O)N[C@@H](C)C(=O)O)C(C)C` [saralasin–ITCC], the “decrease of affinity by ITCC versus published Ki of saralasin” value (AGTR1 [2]) is reported as 250 fold, the “accumulation in AGTR1-positive xenograft tumors” value ([12]; 1 nmol i.v., NIRF imaging) is reported as “selective accumulation” and the “ex vivo organ imaging” value ([12]; 6 hours after injection) is reported as “accumulation in kidneys and liver”. For the same molecule, the “uptake in QGP-1 tumors” value [13] was “Low non-significant uptake”.

In the case of `CCOc1nc2cccc(C(=O)O)c2n1Cc1ccc(-c2ccccc2-c2nc(=O)o[nH]2)cc1` [azilsartan], the “serotonin (5HT) secretion” value (BON cells [8]) is reported as “did not modify”.

B1: Angiotensin II receptor type 1, P30556 (protein)
chain: MILNSSTEDGIKRIQDDCPKAGRHNYIFVMIPTLYSIIFVVGIFGNSLVVIVIYFYMKLKTVASVFLLNLALADLCFLLTLPLWAVYTAMEYRWPFGNYLCKIASASVSFNLYASVFLLTCLSIDRYLAIVHPMKSRLRRTMLVAKVTCIIIWLLAGLASLPAIIHRNVFFIENTNITVCAFHYESQNSTLPIGLGLTKNILGFLFPFLIILTSYTLIWKALKKAYEIQKNKPRNDDIFKIIMAIVLFFFFSWIPHQIFTFLDVLIQLGIIRDCRIADIVDTAMPITICIAYFNNCLNPLFYGFLGKKFKRYFLQLLKYIPPKAKSHSNLSTKMSTLSYRPSDNVSSSTKKPAPCFEVE
Molecule B1 has a Ki [14] of 0.1 nM, a Ki [15] of 0.2 nM and a Kd [16] of 0.6 nM.
